Assay results reported in US20240246942A1, “KINASE INHIBITORS FOR THE TREATMENT OF NEURODEGENERATIVE DISEASES” (priority 2020, published 2024).

Columns and labels:
Assay in all cases: biochemical
[1] = molecular target: T1, panel of 374 wild-type kinases (Homo sapiens, UniProt P50613); settings: read-out: % Enzyme Activity (relative to DMSO controls), CDK7/cyclin H
T1 construct: purchased Reaction Biology Corporation

[2] = molecular target: T2, panel of 374 wild-type kinases (Homo sapiens, UniProt Q6PHR2); settings: read-out: % Enzyme Activity (relative to DMSO controls), kinase ULK3
T2 construct: purchased Reaction Biology Corporation
T2 sequence (Q6PHR2 1-472): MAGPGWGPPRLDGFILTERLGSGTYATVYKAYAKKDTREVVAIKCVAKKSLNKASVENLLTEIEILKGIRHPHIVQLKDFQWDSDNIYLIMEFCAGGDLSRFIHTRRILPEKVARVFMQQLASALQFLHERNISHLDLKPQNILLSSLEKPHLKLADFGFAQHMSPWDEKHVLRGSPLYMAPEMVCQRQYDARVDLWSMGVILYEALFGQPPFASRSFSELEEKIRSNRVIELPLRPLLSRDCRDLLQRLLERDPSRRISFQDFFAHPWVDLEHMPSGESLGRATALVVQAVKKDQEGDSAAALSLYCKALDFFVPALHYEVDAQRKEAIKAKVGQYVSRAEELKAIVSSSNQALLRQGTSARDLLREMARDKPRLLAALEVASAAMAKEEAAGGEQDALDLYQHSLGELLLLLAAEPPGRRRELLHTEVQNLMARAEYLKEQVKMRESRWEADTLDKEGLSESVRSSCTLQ

[3] = molecular target: T3, panel of 374 wild-type kinases (Homo sapiens, UniProt Q8TD08); settings: read-out: % Enzyme Activity (relative to DMSO controls), ERK7/MAPK15
T3 construct: purchased Reaction Biology Corporation
T3 sequence (Q8TD08 1-544): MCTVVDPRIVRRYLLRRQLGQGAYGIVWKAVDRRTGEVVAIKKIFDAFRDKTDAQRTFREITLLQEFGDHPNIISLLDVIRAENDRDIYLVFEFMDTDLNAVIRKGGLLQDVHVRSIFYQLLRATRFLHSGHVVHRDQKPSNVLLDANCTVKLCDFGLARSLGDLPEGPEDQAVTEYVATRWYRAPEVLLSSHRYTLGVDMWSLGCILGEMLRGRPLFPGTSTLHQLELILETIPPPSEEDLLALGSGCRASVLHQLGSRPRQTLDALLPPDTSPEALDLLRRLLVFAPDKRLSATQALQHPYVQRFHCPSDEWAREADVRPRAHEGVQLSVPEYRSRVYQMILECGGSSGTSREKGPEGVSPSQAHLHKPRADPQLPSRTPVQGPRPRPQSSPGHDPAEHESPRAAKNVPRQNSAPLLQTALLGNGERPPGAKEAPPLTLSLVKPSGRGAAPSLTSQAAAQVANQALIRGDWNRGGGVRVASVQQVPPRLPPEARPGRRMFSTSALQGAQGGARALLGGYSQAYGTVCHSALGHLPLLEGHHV

[4] = molecular target: T4, panel of 374 wild-type kinases (Homo sapiens, UniProt Q9H2X6); settings: read-out: % Enzyme Activity (relative to DMSO controls), HIPK2
T4 construct: purchased Reaction Biology Corporation
T4 sequence (Q9H2X6 whole entry): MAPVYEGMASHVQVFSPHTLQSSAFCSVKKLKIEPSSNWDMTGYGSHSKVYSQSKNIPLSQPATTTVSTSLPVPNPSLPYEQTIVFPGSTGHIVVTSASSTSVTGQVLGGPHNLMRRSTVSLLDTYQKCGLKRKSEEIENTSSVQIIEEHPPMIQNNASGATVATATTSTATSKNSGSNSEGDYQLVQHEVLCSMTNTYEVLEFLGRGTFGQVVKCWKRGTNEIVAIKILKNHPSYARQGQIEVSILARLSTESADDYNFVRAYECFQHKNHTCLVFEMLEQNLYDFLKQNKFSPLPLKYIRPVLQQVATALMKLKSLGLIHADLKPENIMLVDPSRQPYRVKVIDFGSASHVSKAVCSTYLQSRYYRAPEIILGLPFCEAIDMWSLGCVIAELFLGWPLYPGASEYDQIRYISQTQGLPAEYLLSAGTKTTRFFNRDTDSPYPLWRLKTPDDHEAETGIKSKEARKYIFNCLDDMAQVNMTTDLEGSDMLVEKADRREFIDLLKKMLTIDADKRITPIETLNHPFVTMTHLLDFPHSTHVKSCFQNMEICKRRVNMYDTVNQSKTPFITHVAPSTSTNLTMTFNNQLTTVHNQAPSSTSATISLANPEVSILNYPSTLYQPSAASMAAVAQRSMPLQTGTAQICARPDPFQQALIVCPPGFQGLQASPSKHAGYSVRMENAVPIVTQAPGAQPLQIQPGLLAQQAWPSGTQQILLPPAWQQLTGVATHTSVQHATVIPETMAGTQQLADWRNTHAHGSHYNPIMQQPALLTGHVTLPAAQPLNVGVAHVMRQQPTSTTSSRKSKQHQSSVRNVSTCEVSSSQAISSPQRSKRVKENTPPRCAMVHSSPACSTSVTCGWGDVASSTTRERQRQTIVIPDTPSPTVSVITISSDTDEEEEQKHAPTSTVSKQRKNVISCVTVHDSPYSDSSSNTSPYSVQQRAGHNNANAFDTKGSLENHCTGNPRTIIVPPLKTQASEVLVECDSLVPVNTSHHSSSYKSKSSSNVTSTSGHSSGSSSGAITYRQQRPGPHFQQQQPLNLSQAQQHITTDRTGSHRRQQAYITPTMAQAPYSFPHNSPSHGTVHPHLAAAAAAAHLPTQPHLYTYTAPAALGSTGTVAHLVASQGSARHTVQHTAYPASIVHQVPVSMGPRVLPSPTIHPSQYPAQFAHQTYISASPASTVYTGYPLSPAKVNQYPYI

[5] = molecular target: T5, panel of 374 wild-type kinases (Homo sapiens, UniProt Q9NRM7); settings: read-out: % Enzyme Activity (relative to DMSO controls), LATS2
T5 construct: purchased Reaction Biology Corporation
T5 sequence (Q9NRM7 1-1088): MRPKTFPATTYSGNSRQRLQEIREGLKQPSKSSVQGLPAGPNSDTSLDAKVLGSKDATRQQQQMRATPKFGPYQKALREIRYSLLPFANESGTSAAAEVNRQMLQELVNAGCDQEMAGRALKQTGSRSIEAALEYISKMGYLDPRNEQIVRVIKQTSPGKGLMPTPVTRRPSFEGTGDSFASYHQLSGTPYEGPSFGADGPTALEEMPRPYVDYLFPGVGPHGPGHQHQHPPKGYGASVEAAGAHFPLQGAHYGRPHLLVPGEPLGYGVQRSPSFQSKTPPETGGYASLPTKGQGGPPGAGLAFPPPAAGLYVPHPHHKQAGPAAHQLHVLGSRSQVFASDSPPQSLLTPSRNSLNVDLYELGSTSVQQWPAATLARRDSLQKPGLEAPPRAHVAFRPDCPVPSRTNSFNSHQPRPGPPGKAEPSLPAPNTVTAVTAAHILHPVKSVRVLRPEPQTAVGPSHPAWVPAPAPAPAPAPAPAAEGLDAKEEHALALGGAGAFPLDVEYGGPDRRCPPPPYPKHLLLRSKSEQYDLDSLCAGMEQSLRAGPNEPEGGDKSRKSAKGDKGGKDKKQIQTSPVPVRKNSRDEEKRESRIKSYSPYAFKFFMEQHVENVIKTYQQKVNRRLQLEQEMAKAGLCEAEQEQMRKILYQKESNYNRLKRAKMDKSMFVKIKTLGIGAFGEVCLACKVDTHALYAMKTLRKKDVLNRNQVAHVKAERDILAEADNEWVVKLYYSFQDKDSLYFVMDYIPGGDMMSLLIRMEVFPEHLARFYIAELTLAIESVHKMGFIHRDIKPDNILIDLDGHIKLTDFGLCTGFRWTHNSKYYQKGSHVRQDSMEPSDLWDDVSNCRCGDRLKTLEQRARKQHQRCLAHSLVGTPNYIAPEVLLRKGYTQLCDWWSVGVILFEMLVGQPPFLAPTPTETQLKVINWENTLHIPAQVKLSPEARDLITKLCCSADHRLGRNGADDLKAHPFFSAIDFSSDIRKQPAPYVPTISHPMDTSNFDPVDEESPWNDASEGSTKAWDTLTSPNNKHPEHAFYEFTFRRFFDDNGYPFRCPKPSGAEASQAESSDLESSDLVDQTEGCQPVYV

T1 sequence (P50613 whole entry): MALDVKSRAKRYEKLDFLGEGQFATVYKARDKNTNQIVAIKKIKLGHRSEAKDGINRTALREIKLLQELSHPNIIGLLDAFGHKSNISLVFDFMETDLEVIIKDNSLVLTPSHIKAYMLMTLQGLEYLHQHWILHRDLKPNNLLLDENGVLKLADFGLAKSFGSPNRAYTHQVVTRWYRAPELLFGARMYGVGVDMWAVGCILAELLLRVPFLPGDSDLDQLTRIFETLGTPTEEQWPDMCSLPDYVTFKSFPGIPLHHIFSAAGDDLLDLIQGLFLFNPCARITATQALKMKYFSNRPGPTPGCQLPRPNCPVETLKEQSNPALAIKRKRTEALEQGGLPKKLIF

Compound | remaining activity at 10 µM ([1]; 10 uM) [%] | remaining activity at 10 µM ([2]; 10 uM) [%] | remaining activity at 10 µM ([3]; 10 uM) [%] | remaining activity at 10 µM ([4]; 10 uM) [%] | remaining activity at 10 µM ([5]; 10 uM) [%] | remaining activity at 5 µM [1] [%] | remaining activity at 5 µM [2] [%] | remaining activity at 5 µM [3] [%] | remaining activity at 5 µM [4] [%] | remaining activity at 5 µM [5] [%]
Cc1sc(C(=O)NC2COC2)cc1-n1cc(NC(=O)Nc2c(F)cccc2Cl)cn1 [Compound 27, 4-(4-(3-(2-chloro-6-fluorophenyl)ureido)-1H-pyrazol-1-yl)-5-methyl-N-(oxetan-3-yl)thiophene-2-carboxamide] | 103 | 105 | 103 | 103 | 94.7 | – | – | – | – | –
O=C(Nc1cnn(-c2csc(C(=O)NC3COC3)c2)c1)Nc1c(F)cccc1Cl [Compound 25, 4-(4-(3-(2-chloro-6-fluorophenyl)ureido)-1H-pyrazol-1-yl)-N-(oxetan-3-yl)thiophene-2-carboxamide] | – | – | – | – | – | 95.8 | 76.6 | 108 | 92.6 | 104
O=C(Nc1cnn(-c2csc(C(=O)NC3COC3)c2)c1)Nc1ccccc1Cl [Compound 17, 4-(4-(3-(2-chlorophenyl)ureido)-1H-pyrazol-1-yl)-N-(oxetan-3-yl)thiophene-2-carboxamide] | – | – | – | – | – | 99.7 | 111 | 140 | 102 | 96
